Measurements: patent US20260226006A1, “INDOLE COMPOUND, PREPARATION METHOD THEREFOR AND USE THEREOF” (SUZHOU MERNA THERAPEUTICS CO. LTD, priority 2023, published 2026)

Experiments:
HaCat cells = test: m6A methylation level of drug-treated HaCat keratinocytes by nanopore sequencing (Example 14); format: cell-based, human; conditions: 50 nM drug, 24 hours
Protocol: 1*10^8 HaCat cells were seeded in culture dishes, into which 50 nM drugs (including sorafenib, capecitabine, docetaxel, and osimertinib) were added, respectively. The cells were cultured in an incubator containing 5% CO2 at 37° C. for 24 hours and washed with PBS after culture media were removed. Centrifugation was performed, the supernatant was discarded, and then, 400 μL of an RLT cell lysis buffer (QIAGEN, Cat. #79216) was added. A portion of samples were selected, into which 400 μL of 70% ethanol was added. The mixture was evenly stirred and then transferred to an RNeasy mini column, and RNA was extracted using an RNeasy mini kit (QIAGEN, Cat. #74104). 2 μL of an RNA sample was selected and dissolved in 98 μL of a 10 mM Tris-HCl buffer solution, and the absorbance at 260 nm was measured using a Nanodrop (Thermo Fisher Scientific) to determine the RNA concentration.
40 μg of an RNA sample was selected for enrichment of mRNA (PolyA+RNA) using an NEBNext Poly(A) mRNA magnetic isolation module (NEB, Cat. #E7490), and then, a 3′ end of the above enriched mRNA (PolyA+RNA) molecule was ligated with reverse transcription adapter RTA using a direct RNA sequencing kit (Oxford Nanopore Technologies, Cat. #SQK-RNA002). A reverse transcription reaction was performed with the mRNA (PolyA+RNA) molecule as a template to synthesize a complementary strand, a terminal end of the reverse transcription adapter RTA was ligated with a sequencing adapter (RNA adapter) to form a final sequencing library, and quantitative detection was performed using a Qubit™ dsDNA HS assay kit (Invitrogen, Cat. #LOT2133187).
After quality inspection of the library, the prepared sequencing library was loaded onto a PromethION flow cell chip (Oxford Nanopore Technologies, Cat. #FLO-MIN106D), and placed in a PromethION sequencer (Oxford Nanopore Technologies) for sequencing by selecting a matched sequencing mode. Basecalling was performed on sequencing data through guppy, and m6A methylation analysis was performed on original fast5 data.

[1] = test system: skin of hind limb toes of mice; test: Chemotherapeutic drug-induced mouse models with hand-foot syndrome (Example 23); format: in vivo, ICR mice; conditions: compound 2b 3% ointment topical or nicotinamide 100 mg/kg oral; for expression level of cytokine IL-8 in skin tissues of hind limb toes: capecitabine model; for thickening of the epidermal layer and the stratum corneum in the skin tissues (pathological staining) / swelling of the toes caused by the modeling drugs: capecitabine or docetaxel model; for swelling of the toes caused by the modeling drugs: once daily 16 days; for expression level of cytokine IL-6 in skin tissues of hind limb toes: docetaxel model
From the text: After adaptive feeding for 7 days, SPF-grade ICR mice (male, 5-6 weeks old, with a body weight of approximately 35 g) were randomly divided into groups, including a blank control group (6 mice), a capecitabine modeling group (6 mice), a docetaxel modeling group (6 mice), a capecitabine+compound 2b group (6 mice), a docetaxel+compound 2b group (6 mice), a capecitabine+nicotinamide group (6 mice), and a docetaxel+nicotinamide group (6 mice). The groups were respectively administered corresponding modeling drugs by oral gavage (capecitabine at 200 mg/kg and docetaxel at 25 mg/kg) once daily, and the blank control group was administered an equivalent volume of normal saline. After administration with the chemotherapeutic drugs for 2 weeks, the compound ointments (at a compound content of 3%) used in Example 22 were respectively applied topically in the groups, or nicotinamide was orally administered (100 mg/kg) once daily continuously for 16 days.
Measurement of the degree of swelling of toes: The degree of swelling of hind limb toes of the mice was measured using a toe swelling tester (KW-7C, Nanjing Calvin Biotechnology Co., Ltd.) before administration with the modeling drugs, after administration with the modeling drugs for 2 weeks, and before sacrifice, respectively. Before measurement, ankle joints of hind paws of the mice were marked at same positions before administration, after administration for 2 weeks, and before sacrifice. During measurement, water was properly located at the same level as the marked positions, and numerical values were recorded after becoming stable.
Pathological staining of skin tissues: Skin tissue samples were selected from hind limb toes of the mice and placed in 4% paraformaldehyde for fixation at room temperature for 4 hours. Then, the tissues were taken out and rinsed with running water for several hours. The samples were subjected to dehydration treatment with 70%, 80%, and 90% ethanol solutions, followed by treatment with a mixed solution of equal amounts of absolute alcohol and xylene for 15 minutes, and then permeabilized twice with a xylene solution for 15 minutes each time until the samples became transparent. The samples were placed in a mixture of half xylene and half paraffin for soaking for 15 minutes, and then, paraffin I and paraffin II were added for wax penetration for one hour, respectively. After embedding with paraffin, the samples were sectioned, baked, dewaxed, and hydrated. Then, the hydrated sections were placed in a hematoxylin solution (ZSGB-BIO, article No. 23041001) for staining for 3 minutes, and a differentiation solution of hydrochloric acid in ethanol was added for differentiation for 15 seconds. After rinsing with water, a Scott bluing solution (Servicebio, article No. 20230801) was added for bluing for 15 seconds. After rinsing with running water, the sections were stained with an eosin solution (Solarbio, article No. 33535) for 3 minutes, rinsed with running water, dehydrated, permeabilized, sealed, and inspected under a microscope.
Immunohistochemical staining: After baking, dewaxing, and hydration, paraffin sections of skin tissues of hind limb toes of the mice were subjected to antigen retrieval using a 0.2 M citric acid buffer solution (containing 1.534 g of citric acid, 3.1 g of sodium citrate, and 100 mL of distilled water, pH 4.7). Endogenous […] was removed using 3% hydrogen peroxide (Shandong Annjet High-Tech Disinfection Technology Co., Ltd., article No. 20290902), and the sections were incubated at room temperature for 10 minutes and then fully rinsed with a PBS buffer solution (containing 8 g of NaCl, 0.2 g of KCl, 1.44 g of Na2HPO4, and 1 M HCl, pH 7.4). The sections were permeabilized with 0.5% Triron-X-100 (AmyJet Scientific, article No. A-CSH436-100 mL), respectively permeabilized with mouse anti-IL-1β and rabbit IL-8 for 10 minutes, and not permeabilized with rabbit anti-IL-6. […]

| SMILES | m6A methylation level of HaCat cells, increase compared with blank control group (HaCat cells) | expression level of cytokine IL-8 in skin tissues of hind limb toes [1] | thickening of the epidermal layer and the stratum corneum in the skin tissues (pathological staining) [1] | swelling of the toes caused by the modeling drugs [1] | expression level of cytokine IL-6 in skin tissues of hind limb toes [1] |
| --- | --- | --- | --- | --- | --- |
| CNC(=O)c1cc(Oc2ccc(NC(=O)Nc3ccc(Cl)c(C(F)(F)F)c3)cc2)ccn1 [Sorafenib, sorafenib, reference compound] | 5.05 times |  |  |  |  |
| NC(=O)c1cccnc1 [Nicotinamide, nicotinamide] |  | does not have a significant impact | mildly alleviates | not observed that oral administration of the nicotinamide at 100 mg/kg significantly alleviates the swelling | does not have a significant impact |
| C=CC(=O)Nc1cc(Nc2nccc(-c3cn(C)c4ccccc34)n2)c(OC)cc1N(C)CCN(C)C [Osimertinib, osimertinib, reference compound] | 5.13 times |  |  |  |  |
| NC(=O)[C@H]1CCCc2c1[nH]c1ccc(Cl)cc21 [Compound 2b, (S)-6-chloro-2,3,4,9-tetrahydro-1H-carbazole-1-carboxamide] |  | significantly decrease | effectively alleviate | significantly alleviate | significantly decrease |
